Measurements as given in paper PMC6792352, “Limited Chemical Structural Diversity Found to Modulate Thyroid Hormone Receptor in the Tox21 Chemical Library” (Environmental Health Perspectives, 2019).
Structures can show the parent of a compound that is named as a salt.

assay: in vitro; conditions: rat, gh3-tre-luc cells, AC50 (uM) modified / 1000

OCCOCCOCCO [Triethylene glycol] and CC(CO)CO [2-Methylpropane-1,3-diol] cannot be ordered by CC50 at 24 h: > 100 µM for the first, > 100 µM for the second.

O=C(O[C@@H](C(=O)O)[C@@H](OC(=O)c1ccccc1)C(=O)O)c1ccccc1 [Dibenzoyl-L-tartaric acid] and CC(=O)OC(C(=O)c1ccccc1)c1ccccc1 (stereo not drawn) [Benzoin acetate] cannot be ordered by CC50 at 24 h: > 90 µM for the first, > 90 µM for the second.

O=c1[nH]c(=O)n([C@H]2C[C@H](O)[C@@H](CO)O2)cc1C(F)(F)F [Trifluridine] and O=C(O)CCC/C=C\C[C@@H]1[C@@H](/C=C/[C@@H](O)COc2cccc(C(F)(F)F)c2)[C@H](O)C[C@@H]1O (racemic) [Fluprostenol] cannot be ordered by CC50 at 24 h: > 50 µM for the first, > 50 µM for the second.

Cc1ccc(S(N)(=O)=O)cc1 [4-Toluenesulfonamide] and Cc1noc(NS(=O)(=O)c2ccc(N)cc2)c1C [Sulfisoxazole] cannot be ordered by CC50 at 24 h: > 90 µM for the first, > 50 µM for the second.

N=C(N)c1ccc(OCCCOc2ccc(C(=N)N)cc2Br)c(Br)c1 [Dibromopropamidine dihydrochloride] and CCN(CCCCOC(=O)c1ccc(OC)c(OC)c1)C(C)Cc1ccc(OC)cc1 (stereo not drawn) [Mebeverine hydrochloride] cannot be ordered by CC50 at 24 h: 38.5 µM for the first, > 20 µM for the second.

C=CN1CCCC1=O [N-Vinyl-2-pyrrolidone] and O=S1(=O)CCCO1 [1,3-Propane sultone] cannot be ordered by CC50 at 24 h: > 90 µM for the first, > 90 µM for the second.

Going from CN(C)C/C=C(/c1ccc(Br)cc1)c1cccnc1 [Zimeldine dihydrochloride hydrate] to O=C(c1ccccc1)c1ccc(O)c(O)c1O [2,3,4-Trihydroxbenzophenone], the CC50 at 24 h rises from 35.2 µM to 75 µM (2.1-fold).

COc1nc(N)nc2nc[nH]c12 [O6-Methylguanine] and COc1cc(OC)nc(Sc2cccc(Cl)c2C(=O)O)n1 [Pyrithiobac-sodium] cannot be ordered by CC50 at 24 h: > 90 µM for the first, > 90 µM for the second.

CC(N)=O [Acetamide] and COCC(C)OC(C)=O (stereo not drawn) [1-Methoxy-2-propyl acetate] cannot be ordered by CC50 at 24 h: > 200 µM for the first, > 90 µM for the second.

COc1c(Cl)c(Cl)c(Cl)c(Cl)c1Cl [Pentachloroanisole] and Oc1c(Cl)cccc1Cl [2,6-Dichlorophenol] cannot be ordered by CC50 at 24 h: > 90 µM for the first, > 90 µM for the second.

C=CC(O)CCCCC (stereo not drawn) [1-Octen-3-ol] and CCCCCC[N+](=O)[O-] [1-Nitrohexane] cannot be ordered by CC50 at 24 h: > 90 µM for the first, > 90 µM for the second.

CCCCNc1cc(C(=O)O)cc(S(N)(=O)=O)c1Oc1ccccc1 [Bumetanide] and CCOC(=O)Nc1ccc2c(c1)N(C(=O)CN(C)C)c1ccccc1CC2 [Tiracizine] cannot be ordered by CC50 at 24 h: > 20 µM for the first, 41.3 µM for the second.

CCCSC(=O)Cl [S-(Propyl) chlorothioformate] and C=CCSSCCC [Allyl propyl disulfide] cannot be ordered by CC50 at 24 h: > 90 µM for the first, > 90 µM for the second.

First: CCCN(CCc1cccs1)[C@H]1CCc2c(O)cccc2C1 [Rotigotine]
Second: CCN(CC)CCOC(=O)C(c1ccccc1)C1CCCCC1 (stereo not drawn) [Drofenine hydrochloride]
The CC50 at 24 h of the first is 1.9-fold higher: 40.9 µM for the first, 21.1 µM for the second.

OC/C=C/c1ccccc1 [3-Phenyl-2-propen-1-ol] and O=C(O)/C=C/c1ccccc1 [E-Cinnamic acid] cannot be ordered by CC50 at 24 h: > 100 µM for the first, > 90 µM for the second.

CC1(C)NC(=O)NC1=O [5,5-Dimethylhydantoin] and CC(=O)/C(C)=C/C1C(C)=CCCC1(C)C (stereo not drawn) [alpha-Isomethylionone] cannot be ordered by CC50 at 24 h: > 90 µM for the first, > 90 µM for the second.

Going from CC1(C)C2(Cl)C(Cl)C(Cl)C(Cl)(C(Cl)Cl)C1(Cl)C2Cl (stereo not drawn) [Strobane] to C[C@]12CC[C@H]3[C@@H](CC[C@@]45O[C@@H]4C(O)=C(C#N)C[C@]35C)[C@@H]1CC[C@@H]2O [Trilostane], the CC50 at 24 h rises from 21 µM to > 90 µM.

CO/N=C(\C(=O)N[C@@H]1C(=O)N2C(C(=O)O)=CCS[C@H]12)c1csc(N)n1 [Ceftizoxime sodium] and CO/N=C(\C(=O)N[C@@H]1C(=O)N2C(C(=O)O)=C(COC(N)=O)CS[C@H]12)c1ccco1 [Cefuroxime] cannot be ordered by CC50 at 24 h: > 50 µM for the first, > 90 µM for the second.

C=CCOC(=O)CC(C)C [Allyl isovalerate] and CC(C)CC(=O)CC(C)CC(C)C (stereo not drawn) [2,6,8-Trimethyl-4-nonanone] cannot be ordered by CC50 at 24 h: > 90 µM for the first, > 90 µM for the second.

Clc1ccc2nsnc2c1NC1=NCCN1 [Tizanidine] and CCCc1c(OCCCCc2nnn[nH]2)ccc(C(C)=O)c1O [Tomelukast] cannot be ordered by CC50 at 24 h: > 50 µM for the first, > 50 µM for the second.

Going from Cc1c(C(=O)O)c(O)cc2c1C(=O)c1c(O)c(C3OC(CO)C(O)C(O)C3O)c(O)c(O)c1C2=O (stereo not drawn) [Cochineal] to O=C1c2c(O)cccc2C([C@@H]2O[C@H](CO)[C@@H](O)[C@H](O)[C@H]2O)c2cc(CO)cc(O)c21 (stereo partly drawn) [Aloin], the CC50 at 24 h rises from 29.1 µM to > 50 µM.

CC(C)Oc1ccc2c(=O)c(-c3ccccc3)coc2c1 [Ipriflavone] and CC(C(=O)O)c1ccc2c(c1)CC(=O)c1ccccc1S2 (stereo not drawn) [Zaltoprofen] cannot be ordered by CC50 at 24 h: > 50 µM for the first, > 50 µM for the second.

NC(N)=NCCCCN=C(N)N [1,1'-Tetramethylenediguanidine sulfate] and O=C(O)CCCCCCCCCCC(=O)O [Dodecanedioic acid] cannot be ordered by CC50 at 24 h: > 50 µM for the first, > 90 µM for the second.

Going from CCOc1ccccc1N [2-Ethoxyaniline] to C/C=C/C(=O)Oc1ccccc1[N+](=O)[O-] [Dinocap], the CC50 at 24 h falls from > 90 µM to 14.3 µM.

Going from CO[C@H]1O[C@@H]2O[C@@]3(C)CC[C@H]4[C@H](C)CC[C@@H]([C@H]1C)[C@@]24OO3 [Artemether] to C[C@H]1CC[C@]2(NC1)O[C@H]1C[C@H]3[C@@H]4CC[C@H]5C[C@@H](O[C@@H]6O[C@H](CO)[C@H](O[C@@H]7O[C@H](CO)[C@@H](O)[C@H](O[C@@H]8OC[C@@H](O)[C@H](O)[C@H]8O)[C@H]7O[C@@H]7O[C@H](CO)[C@@H](O)[C@H](O)[C@H]7O)[C@H](O)[C@H]6O)CC[C@]5(C)[C@H]4CC[C@]3(C)[C@H]1[C@@H]2C [alpha-Tomatine], the CC50 at 24 h falls from > 50 µM to 2.38 µM.

First: C1CCC(C(CC2CCCCN2)C2CCCCC2)CC1 (stereo not drawn) [Perhexiline maleate]
Second: O=C(OC1CCCCC1)c1ccccc1C(=O)OC1CCCCC1 [Dicyclohexyl phthalate]
The CC50 at 24 h of the first is 9.3-fold lower: 4.32 µM for the first, 40.2 µM for the second.

First: O=C(c1ccc(O)c(O)c1)c1ccc(O)cc1O [2,3',4,4'-Tetrahydroxybenzophenone]
Second: COc1ccc(CCNC[C@H](O)c2ccc(O)cc2)cc1OC [Denopamine]
The CC50 at 24 h of the first is lower: 49.5 µM for the first, > 50 µM for the second.

O=C(O)CCCl [3-Chloropropanoic acid] and CCCCCCCCCCCCCC(=O)OC [Methyl tetradecanoate] cannot be ordered by CC50 at 24 h: > 90 µM for the first, > 90 µM for the second.

First: c1ccc2cc(Nc3ccc(Nc4ccc5ccccc5c4)cc3)ccc2c1 [N,N'-Di-2-naphthyl-p-phenylenediamine]
Second: CC1=C(C(=O)OC(C)C)C(c2cccc([N+](=O)[O-])c2)C(C(=O)OC2CN(C(c3ccccc3)c3ccccc3)C2)=C(N)N1 (stereo not drawn) [Azelnidipine]
The CC50 at 24 h of the first is higher: > 90 µM for the first, 4.41 µM for the second.

O=C[C@H](O)[C@H]1OC(=O)[C@@H](O)[C@H]1O [D-Glucuronolactone] and COC(=O)[C@@H]1[C@H]2CC[C@@H](C[C@H]1OC(=O)c1ccccc1)N2C [Allococaine hydrochloride] cannot be ordered by CC50 at 24 h: > 90 µM for the first, > 50 µM for the second.

CN(C)C(=O)Oc1cc(OC(=O)N(C)C)cc(C(O)CNC(C)(C)C)c1 (stereo not drawn) [Bambuterol hydrochloride] and O=C(O)c1cc(C(=O)O)cc(S(=O)(=O)O)c1 [Sodium 5-sulfoisophthalate] cannot be ordered by CC50 at 24 h: > 20 µM for the first, > 90 µM for the second.

Nc1cccc(O)c1 [3-Aminophenol] and Cc1ccc([N+](=O)[O-])c(N)c1 [5-Methyl-2-nitroaniline] cannot be ordered by CC50 at 24 h: > 90 µM for the first, > 90 µM for the second.

Going from O=C1OC2(c3ccccc31)c1cc(Br)c(O)c(Br)c1Oc1c2cc(Br)c(O)c1Br [2',4',5',7'-Tetrabromofluorescein] to Brc1cc(-c2ccc(Br)c(Br)c2Br)cc(Br)c1Br [Polybrominated biphenyls (PBB)], the CC50 at 24 h rises from 5.55 µM to > 50 µM.

CC[N+](CC)(CC(=O)Nc1c(C)cccc1C)Cc1ccccc1 [Denatonium benzoate] and CCN(CCO)CCn1c(Cc2ccccc2)nc2c1c(=O)n(C)c(=O)n2C [Bamifylline Hydrochloride] cannot be ordered by CC50 at 24 h: > 50 µM for the first, > 50 µM for the second.

COC(C)(C)CCCC(C)CC=O (stereo not drawn) [7-Methoxy-3,7-dimethyloctanal] and CC(C)CC(C)(C)C [2,2,4-Trimethylpentane] cannot be ordered by CC50 at 24 h: > 90 µM for the first, > 100 µM for the second.

CN(C)C [Trimethylamine hydrochloride] and Cc1cc(C)c(N)c(Cl)c1 [2-Chloro-4,6-dimethylaniline] cannot be ordered by CC50 at 24 h: > 90 µM for the first, > 90 µM for the second.

First: Nc1ccc(Oc2ccc(Cl)cc2)cc1 [4-Chloro-4'-aminodiphenyl ether]
Second: NNc1nc(-c2ccccc2)cs1 [2-Hydrazino-4-phenylthiazole]
The CC50 at 24 h of the first is higher: > 90 µM for the first, 47 µM for the second.

BrC(Br)C(Br)Br [1,1,2,2-Tetrabromoethane] and COc1cc(N)c(Cl)cc1C(=O)NC1CN2CCC1CC2 (stereo not drawn) [Zacopride hydrochloride] cannot be ordered by CC50 at 24 h: > 90 µM for the first, > 50 µM for the second.

C=C(C)c1ccccc1 [alpha-Methylstyrene] and CC(=O)Oc1cc2c(s1)CCN(C(C(=O)C1CC1)c1ccccc1F)C2 (stereo not drawn) [Prasugrel hydrochloride] cannot be ordered by CC50 at 24 h: > 90 µM for the first, > 50 µM for the second.

Compound COc1cccc2c1[C@@H]1CN(CCCCn3c(=O)[nH]c4c(sc5ncc(-c6ccccc6)nc54)c3=O)C[C@@H]1CO2 [Fiduxosin hydrochloride] has a CC50 at 24 h of 13.1 µM.

same assay, conditions: rat, gh3-tre-luc cells, AC50 (uM) modified / 1000, Tox21_110001=Tox21_201195; viability, 1 nM T3 present, 24 h

For COc1c(C(C)(C)C)cc([N+](=O)[O-])c(C)c1[N+](=O)[O-] [Musk ambrette], the CC50 at 24 h was > 90 µM.

same assay, conditions: rat, gh3-tre-luc cells, AC50 (uM) modified / 1000, Tox21_110001=Tox21_201457; viability, 1 nM T3 present, 24 h

With O=NN(c1ccccc1)c1ccccc1 [N-Nitrosodiphenylamine] the CC50 at 24 h was > 90 µM.

same assay, conditions: rat, gh3-tre-luc cells, AC50 (uM) modified / 1000, Tox21_110001=Tox21_300964; viability, 1 nM T3 present, 24 h

In the case of O=C(CCl)NCO [2-Chloro-N-(hydroxymethyl)acetamide], the CC50 at 24 h is reported as > 90 µM.

same assay, conditions: rat, gh3-tre-luc cells, AC50 (uM) modified / 1000, Tox21_110001=Tox21_302008; viability, 1 nM T3 present, 24 h

In the case of C#CCOC(=O)/C=C(C)/C=C/CC(C)CCCC(C)C (stereo not drawn) [Kinoprene], the CC50 at 24 h is reported as > 90 µM.

same assay, conditions: rat, gh3-tre-luc cells, AC50 (uM) modified / 1000, Tox21_110001=Tox21_302247; viability, 1 nM T3 present, 24 h

For CCC(Br)(CC)C(=O)NC(N)=O [Carbromal], the CC50 at 24 h was > 90 µM.
